The nature of this data set: Solubility in water. It is filed as physicochemical. The note with it: at room temperature, read-out: Löslichkeit in Wasser.

≈ marks a conversion by molar mass, not a printed value.

Consider `O=C(O)C(Nc1nc(NC(C(=O)O)n2cncn2)nc(NC(C(=O)O)n2cncn2)n1)n1cncn1` (stereo not shown) [Beispiel 25], for which the solubility worked out at 50 mg/mL (≈ 99.7 mM).

The values above are taken from patent publication EP0682022B1, “Condensation products of melamine, benzotriazoles and aldehydes” (Ciba Specialty Chemicals Holding Inc., priority 1994, dated 1995).
